Test results published in patent US20260200890A1, “ADAR1 INHIBITORS AND METHODS OF USING THE SAME” (AVAMMUNE THERAPEUTICS INC., priority 2022, published 2026).

Target: T1, ADAR1 (Homo sapiens, UniProt P55265)
T1 construct: endogenous in cells; host or cells: p110 KO A549 dual cells
T1 sequence (P55265 1-1226): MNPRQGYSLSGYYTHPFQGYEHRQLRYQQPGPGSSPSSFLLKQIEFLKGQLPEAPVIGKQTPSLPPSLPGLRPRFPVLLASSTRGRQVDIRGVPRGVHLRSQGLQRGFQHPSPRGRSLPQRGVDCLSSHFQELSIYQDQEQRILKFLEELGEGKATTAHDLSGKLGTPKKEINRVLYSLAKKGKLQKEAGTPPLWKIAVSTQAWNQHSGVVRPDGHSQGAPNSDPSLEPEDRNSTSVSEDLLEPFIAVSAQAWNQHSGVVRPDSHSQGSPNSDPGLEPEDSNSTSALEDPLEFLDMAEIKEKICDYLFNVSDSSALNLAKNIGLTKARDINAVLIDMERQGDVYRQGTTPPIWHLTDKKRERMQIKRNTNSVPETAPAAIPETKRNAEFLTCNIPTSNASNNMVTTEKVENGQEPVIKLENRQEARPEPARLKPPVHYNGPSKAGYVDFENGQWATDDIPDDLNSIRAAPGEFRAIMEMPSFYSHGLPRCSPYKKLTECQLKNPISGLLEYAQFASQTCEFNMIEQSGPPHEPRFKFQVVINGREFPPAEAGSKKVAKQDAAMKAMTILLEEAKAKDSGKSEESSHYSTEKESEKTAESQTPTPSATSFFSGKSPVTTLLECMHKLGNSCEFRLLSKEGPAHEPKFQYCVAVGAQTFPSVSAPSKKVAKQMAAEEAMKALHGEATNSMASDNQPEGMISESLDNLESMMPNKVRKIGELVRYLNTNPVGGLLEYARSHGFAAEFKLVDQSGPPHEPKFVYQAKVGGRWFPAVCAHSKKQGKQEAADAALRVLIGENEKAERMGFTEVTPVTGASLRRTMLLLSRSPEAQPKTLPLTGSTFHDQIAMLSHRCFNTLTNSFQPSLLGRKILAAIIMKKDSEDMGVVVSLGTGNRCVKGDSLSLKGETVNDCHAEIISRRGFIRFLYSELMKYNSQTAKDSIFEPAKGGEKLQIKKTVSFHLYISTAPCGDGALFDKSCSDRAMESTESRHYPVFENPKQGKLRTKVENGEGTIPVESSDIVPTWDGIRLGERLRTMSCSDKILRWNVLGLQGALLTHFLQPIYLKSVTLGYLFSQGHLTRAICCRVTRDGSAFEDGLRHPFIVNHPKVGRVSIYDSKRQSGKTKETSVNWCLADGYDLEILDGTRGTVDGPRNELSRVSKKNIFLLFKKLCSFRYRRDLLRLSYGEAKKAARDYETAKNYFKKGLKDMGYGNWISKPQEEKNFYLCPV
Assay: ADAR1 Inhibition Assay (IFN fold-induction, Quanti-Luc luminescence, p110 KO A549 dual cells)
Assay type: cell-based
Details: IFN fold-induction vs DMSO, 24 and 48 h
Method in brief: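 p110 KO A549 dual cells (20,000/well) in supplemented DMEM, treated next day with compound at 1% final DMSO for 24 and 48 h at 37 °C, 5% CO2. Supernatant luminescence read with Quanti-Luc; IFN fold-induction = sample RLU/mean DMSO RLU, used for EC50.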

EC50 [µM]	Structure (SMILES)
> 100	CCOC(=O)c1nc(-c2ccccc2)[nH]c1NC(=O)COC(=O)c1cccc(NS(C)(=O)=O)c1 [Compound 141]
> 100	CS(=O)(=O)Nc1cccc(C(=O)OCC(=O)Nc2sc(-c3ccccc3)cc2C(=O)NC2CC2)c1 [Compound 85]
50 to 100	CCOC(=O)c1cc(-c2ccccc2)sc1NC(=O)C1CCCN1C(=O)c1cccc(P(=O)(O)O)c1 (centres unmarked) [Compound 404]
> 100	CCOC(=O)c1cc(-c2ccccc2)sc1N1C(=O)N(c2cccc(NS(C)(=O)=O)c2)C(C)(C)C1=O [Compound 233]
> 100	CCOC(=O)c1cc(-c2ccccc2)sc1NC(=O)CNC(=O)c1cc(S(N)(=O)=O)ccc1F [Compound 56]
> 100	CCOC(=O)c1cc(-c2ccccc2)sc1NC(=O)COCc1cccc(NS(C)(=O)=O)c1 [Compound 207]
> 100	CCOC(=O)c1cc(-c2ccncc2)sc1NC(=O)COC(=O)c1cccc(NS(C)(=O)=O)c1 [Compound 170]
> 100	CCOC(=O)c1cc(-c2ccccc2)sc1NC(=O)COC(=O)c1cccc(NS(=O)(=O)N2CCOCC2)c1 [Compound 136]
> 100	CCOC(=O)c1cc(NC(=O)COC(=O)c2cccc(NS(C)(=O)=O)c2)nn1-c1ccccc1 [Compound 347]
> 100	C=CC(=O)Nc1cccc(C(=O)OCC(=O)Nc2sc(-c3ccccc3)cc2C(=O)OCC)c1 [Compound 284]
> 100	CCOC(=O)c1cc(-c2ccccc2)sc1NC(=O)COC(=O)c1cccc(NS(=O)(=O)c2ccc(F)cc2)c1 [Compound 93]
> 100	CCOC(=O)c1cc(-c2ccccc2)sc1NC(=O)C(C)(C)Nc1cccc(NS(C)(=O)=O)c1 [Compound 231]
> 100	CCOC(=O)c1cc(-c2ccccc2)sc1NC(=O)CNS(=O)(=O)c1ccc(C)cc1 [Compound 27]
> 100	CCOC(=O)c1cc(-c2ccccc2)sc1NC(=O)COC(=O)c1cccc(NS(N)(=O)=O)c1 [Compound 112]
> 100	CCOC(=O)c1cc(-c2ccccc2)sc1NC(=O)CCN(C(C)=O)c1cccc(N(C(C)=O)S(C)(=O)=O)c1 [Compound 237]
> 100	CS(=O)(=O)Nc1cccc(C(=O)OCC(=O)Nc2sc(-c3ccccc3)cc2C(=O)O)c1 [Compound 154]
> 100	CCOC(=O)c1cc(-c2ccccc2)sc1NC(=O)CN1CCN(S(C)(=O)=O)CC1 [Compound 143]
> 100	CCOC(=O)c1cc(-c2ccccc2)sc1NC(=O)c1cccc(NC(=O)c2cccc(NS(C)(=O)=O)c2)c1 [Compound 323]
> 100	CCOC(=O)c1cc(-c2ccccc2)sc1NC(=O)COC(=O)c1cccc(O)c1 [Compound 60]
> 100	CC(C)(C)OC(=O)COC(=O)c1cc(-c2ccccc2)sc1NC(=O)COC(=O)c1cccc(NS(C)(=O)=O)c1 [Compound 203]
> 100	CCOC(=O)c1c(NC(=O)COC(=O)c2cccc(NS(C)(=O)=O)c2)sc2c1CCCC2 [Compound 89]
> 100	CCOC(=O)c1cc(-c2ccccc2)sc1NC(=O)COC(=O)c1ccc2cc(NS(C)(=O)=O)ccc2c1 [Compound 378]
> 100	CCOC(=O)c1cc(-c2ccccc2)sc1NC(=O)COC(=O)c1cccc(C(N)=O)c1 [Compound 50]
> 100	CCOC(=O)c1c(NC(=O)COC(=O)c2cccc(C#N)c2)sc2c1CCCC2 [Compound 91]
> 100	CCOC(=O)c1cc(-c2ccccc2)[nH]c1NC(=O)COC(=O)c1cccc(NS(C)(=O)=O)c1 [Compound 352]
> 100	CCOC(=O)c1cc(-c2ccccc2)sc1NC(=O)CNC(=O)c1cccc(S(=O)(=O)NC)c1 [Compound 11]
> 100	CCOC(=O)c1cc(-c2cc[nH]n2)sc1NC(=O)COC(=O)c1cccc(NS(C)(=O)=O)c1 [Compound 159]
> 100	CCOC(=O)c1cc(-c2ccccc2)sc1NC(=O)[C@@H]1CCCN1C(=O)c1cccc(P(=O)(O)O)c1 [Compound 413]

Structure (SMILES)	EC50 [µM]
CCOC(=O)c1cc(-c2ccccc2)sc1NC(=O)Cn1cc(C(=O)Nc2cccc(P(=O)(OCC)OCC)c2)nn1 [Compound 417]	> 100
